From paper PMC8989062 (Journal of medicinal chemistry, 2022)
“Also recorded” adds a separate entry of the source.

What was measured:
HIV = conditions: cited from earlier work
[1] = tested on: H3K122Ac (HAT activity of BRD4); experiment: immunofluorescence staining of H3K122Ac in lung sections of mice; conditions: n = 5
[2] = tested on: H3K122Ac (HAT activity of BRD4); experiment: immunofluorescence staining of H3K122Ac in hSAECs; format: cell-based, human
BRD4 BD1 E151A mutant = BRD4 BD1 E151A mutant (Homo sapiens, UniProt O60885, E151A); experiment: thermal shift assay; conditions: TSA, 5 μM protein
[3] = cited from earlier work
IL-6 = experiment: poly; conditions: for activity at 10 µM: Homo sapiens, read-out: Residual activity rate, IL-6 (%)
[4] = tested on: poly(I:C)-induced BRD4-dependent acute airway inflammation; experiment: murine model of poly; format: in vivo, C57BL/6J mice; conditions: mice, 10 mg/kg po
[5] = in vivo PK profiles in rats; conditions: rat
CIG5 = experiment: poly; conditions: Homo sapiens, read-out: Residual activity rate, CIG5 (%)
[6] = tested on: BET BD1 and BD2 bromodomains; conditions: SPR; cited from earlier work
[7] = in vivo; cited from earlier work

Cc1sc2c(c1C)C(c1ccc(Cl)cc1)=N[C@@H](CC(=O)OC(C)(C)C)c1nnc(C)n1-2 [Compound 3, reference compound]
effect on latent HIV (HIV): activate latent HIV | poly(I:C)-induced H3K122Ac accumulation in lung tissue of mice [1]: blocked | poly(I:C)-induced H3K122Ac accumulation in hSAECs [2]: blocked | binding to E151A mutant of BRD4 BD1 compared with WT (BRD4 BD1 E151A mutant): maintained a similar binding activity

Cc1cc(/N=N/c2ccc(S(=O)(=O)NC3CCCC3)cc2)c(N)cc1O [Compound 7]
oral bioavailability [3]: 0.5% | AUC0–t ([3]; oral dose of 20 mg/kg): 104 ng·h/mL | Cmax ([3]; oral dose of 20 mg/kg): 36 ng/mL

O=C(Nc1ccc(C(F)(F)F)cc1)Nc1ccc(S(=O)(=O)N2CCC[C@H]2C(=O)Nc2ccccc2)cc1 [Compound 45, (S)-N-Phenyl-1-((4-(3-(4-(trifluoromethyl)phenyl)ureido)phenyl)-sulfonyl)pyrrolidine-2-carboxamide]
effect on HIV (HIV): epigenetically suppress HIV

O=C(Nc1ccc(C(F)(F)F)cc1)Nc1ccc(S(=O)(=O)N2CCC[C@H]2CO)cc1 [Compound 50, (S)-1-(4-((2-(Hydroxymethyl)pyrrolidin-1-yl)sulfonyl)phenyl)-3-(4 (trifluoromethyl)phenyl)urea]
activity at 10 µM (IL-6): 1.71 ± 0.13%

O=C(Nc1ccc(C(F)(F)F)cc1)Nc1ccc(S(=O)(=O)N2CCC[C@H]2CN2CCOCC2)cc1 [Compound 52, (S)-1-(4-((2-(Morpholinomethyl)pyrrolidin-1-yl)sulfonyl)phenyl)-3-(4-(trifluoromethyl)phenyl)urea]
poly(I:C)-induced BRD4-dependent acute airway inflammation, overall [4]: more efficacious | poly(I:C)-induced neutrophilic inflammation around small- and medium-sized airways (histology) [4]: completely inhibited | inflammatory cytokines (IL-6, KC, MCP-1, RANTES) in BALF ([4]; n = 5, 10 mg/kg): significantly attenuated; also recorded: blocked | inflammatory gene expression (IL-6, KC, ISG54, CIG5) in lung tissues ([4]; n = 5, 10 mg/kg): significantly attenuated; also recorded: blocked | total cells and neutrophils in BALF ([4]; n = 5, 10 mg/kg): significantly attenuated; also recorded: blocked | poly(I:C)-induced H3K122Ac accumulation in lung tissue of mice [1]: significantly blocked | improvement of oral bioavailability compared to compound 7 [5]: approximately 30 fold | activity at 10 µM (IL-6): 0.35 ± 0.03% | poly(I:C)-induced H3K122Ac accumulation in hSAECs [2]: significantly blocked | activity at 10 µM (CIG5): 0.34 ± 0.025% | binding to E151A mutant of BRD4 BD1 compared with WT (BRD4 BD1 E151A mutant): complete loss of its binding affinity

O=C(Nc1ccc(C(F)(F)F)cc1)Nc1ccc(S(=O)(=O)N2CCC[C@H]2CN2CCC(O)CC2)cc1 [Compound 53, (S)-1-(4-((2-((4-Hydroxypiperidin-1-yl)methyl)pyrrolidin-1-yl)-sulfonyl)phenyl)-3-(4-(trifluoromethyl)phenyl)urea]
poly(I:C)-induced H3K122Ac accumulation in lung tissue of mice [1]: significantly blocked | fold more potent than compound 1, IL-6 (IL-6; ratio of IC50 values): 15.9 fold | fold more potent than compound 3, IL-6 (IL-6; ratio of IC50 values): 4.8 fold | poly(I:C)-induced H3K122Ac accumulation in hSAECs [2]: significantly blocked

CC(=O)Nc1c(F)cc(C(=O)N[C@H]2CC[C@H](O)CC2)cc1O[C@@H](C)c1ccccc1 [GSK046]
selectivity BET BD2 over BD1 [6]: > 300 fold

COCc1nc2cnc3cc(-c4c(C)noc4C)c(OC[C@H]4CCNC4)cc3c2n1[C@H](C)c1ccccc1 [GSK778]
selectivity BET BD1 over BD2 [6]: > 130 fold

COc1cc(OC)c2c(=O)cc(-c3cc(C)c(OC[C@H](O)CN4CCN(C)CC4)c(C)c3)oc2c1 [ZL0516, (R)-2-(4-(2-hydroxy-3-(4-methylpiperazin-1-yl)propoxy)-3,5-dimethylphenyl)-5,7-di-methoxy-4H-chromen-4-one]
oral bioavailability F [7]: 35%
